Experimental data from US9901591B2, “Paeoniflorin preparations and uses thereof for fat reduction” (priority 2008, dated 2018).
“And” between values parts separate entries of the source, which are not always exact repeats. Equal entries are not always repeated.

Assays:
[1] = Targeted fat reduction with injectable PF preparation in patients; assay type: in vivo, human
Procedure: 1 ml of PF (1) at a concentration of 1 mol is mixed with 4 ml injectable water and 5 ml (phosphatidyl choline (PPC)) prepared from soya bean extract and 5 ml 2% lidocaine. A total of 15 ml solution. This solution is mixed together in a 20 ml syringe and the needle is changed to a small insulin needle Gauge 30×½ as shown therein before the actual injections are given. The solution is then given subcutaneously directly into the fat areas at a dose of 0.5 ml per site totaling 20 injections. These injections are spread out to cover a big surface area, e.g. could be spread out through a whole midsection (“love handle”) in case of a larger patient, or if the patient were an average size it could be spread out to cover right and left love handles in one session. For reference, please refer to the patients injected in the thigh and buttocks area, for explanation. This patient was injected with 30 smaller injections of 0.2 ml per site, and they were spread through out the whole outer and inner thigh and buttocks areas on the right side. 0.5 mg of PF was dissolved in 5 ml of injectable water rendering a concentration of 0.1 mg/ml. This was then mixed with 5 ml of Phosphatidyl Choline in a 20 ml syringe. The large gauge needle was then replaced with a smaller gauge (Gauge 27-30, in some embodiments, a 30 gauge×½) insulin needle and the 10 ml was injected into 20 different sites of a given area. 0.5 ml of the solution was injected into the stomach, with about 1 cm separating each injection site.

[2] = test system: β1-adrenergic receptor (Adrb1); test: Oligo GEArray microarray of obesity-related genes in 3T3-L1 adipocytes; assay type: cell-based, mouse; settings: for Ratio of expression signals of Adrb1 compared to control: 3T3-L1 adipocytes, 1 umol/L PF, control = 1
Procedure: 3T3-L1 adipocytes were cultured in medium containing 1 umol/L PF as test group and medium only as control. Total RNA was extracted and Oligo GEArray was tested using Superarray OMM-17. The GEArray includes 111 obesity-related genes that are directly involved in the regulation of energy intake and expenditure. The genes included orexigenic peptides, hormones, and receptors, anorectic peptides, hormones, receptors, and central and peripheral signaling molecules involved in energy expenditure. The increase changes or decrease changes of more than 1.5 fold are regarded meaningful according to the diagnosis discipline, as described in the insert literature of a metabolic disease/obesity gene panel product purchased from Superarray Bioscience Corporation. (Frederick, Md.). […] In the graphs, the data above the upper line and the data below the lower line show a significant change of gene expression.

[3] = Blood indices before and after PF treatment in patients; assay type: in vivo, human
Procedure: Eight patients were treated with PF. The levels of three indices such as serum cholesterol, LDL Cholesterol, serum triglycerides in blood were tested before and after treatment.

[4] = test system: 3T3-L1 adipocytes; test: Glycerol release from differentiated 3T3-L1 adipocytes (adipolysis); assay type: cell-based, mouse; settings: 1 umol/L PF vs media without PF, 7th day
Description: The 3T3-L1 cell line is an accepted model by those of skill in the art for natural fat loss. This cell line is a substrain of Swiss 3T3 mouse cell line 3T3-L1. This cell line propagated under normal conditions has a fibroblastic phenotype. However, when treated with a combination of dexamethasone, isobutylmethylxanthine (a non-specific inhibitor of phosphodiesterases) (IBMX) and insulin, 3T3 cells adopt a rounded phenotype and accumulate lipids intracellularly in the form of fat droplets. Differentiated 3T3-L1 adipocytes were cultured in media containing 1 umol/L PF as test group, and media without PF as control. As a result of lipolysis activity, glycerol will be generated as a result of triglyceride breakdown and released into the extracellular space. Glycerol content from 3T3-L1 adipocyte cell culture media may therefore provide an indicator of adipolysis.

For `C[C@@]12C[C@@]3(O)O[C@@H](O1)[C@]1(COC(=O)c4ccccc4)[C@H]3C[C@@]12O[C@@H]1O[C@H](CO)[C@@H](O)[C@H](O)[C@H]1O` [PF, paeoniflorin], the weight loss ([1]; 2 sessions together with an aerobic instructor, in 2 weeks) was “over 3 pounds”, the “Size at End of Treatment, stomach area” value ([1]; Patient 1, 6 weeks/11 sessions, size before start 90 cm) was 83 cm and the “Size at End of Tx, stomach area” value ([1]; Patient 2, 5 weeks/9 sessions, size before start 96 cm) was 90 cm. The “Size at End, both upper arms” value ([1]; Patient 3, 1 month/8 sessions (4 per side), size before start 40 cm) was 36.5 cm, the fat loss ([1]; each 10 sessions) was “about 7 cm” and the fat loss ([1]; in 5 sessions of 20 injections of 0.5 ml) was 3 cm. For the same molecule, the “sessions until a noticeable difference was seen” value ([1]; on average, sessions of 20 injections) was 4-5 sessions, the fat loss ([1]; one patient, 10 sessions over about 6 weeks) was “more than 5 inches” and the “sessions per 1 cm of fat dissolved” value ([1]; stomach and thigh areas, human) was 1-1.5 sessions. For the same molecule, the “fat dissolved per session” value ([1]; upper arms areas, human) was “about 1 cm”, the fat lost ([1]; with 10 sessions) was “over 5 pounds” and the “effect on expression of Adrb1” value ([2]; 3T3-L1 adipocytes exposed to PF) was “significant increase”. For the same molecule, the “Ratio of expression signals of Adrb1 compared to control” value (“Ratio of expression signals of Adrb1” for short) ([2]; 3 days) was 3.39, the “Ratio of expression signals of Adrb1” value ([2]; 6 days) was 0.8 and the “Ratio of expression signals of Adrb1” value ([2]; 7 days) was 0.58. For the same molecule, the “Serum Triglycerides Post-tx, Ave” value ([3]; average of eight patients, Pre-tx Ave 79.38, P 0.462, NR: 35-160) was 72.50 mg/dL, the “LDL Cholesterol Post-tx, Ave” value ([3]; average of eight patients, Pre-tx Ave 122.81, P 0.452, NR: 60-150) was 112.69 mg/dL and the “Serum Cholesterol Post-tx, Ave” value ([3]; average of eight patients, Pre-tx Ave 202.88, P 0.002, NR: 50-200) was 172.75 mg/dL. For the same molecule, the “Serum cholesterol, LDL Cholesterol, serum triglycerides in blood, change after treatment” value ([3]; eight patients, before vs after treatment) was “reduced after PF treatment”, the “Serum Triglycerides Post-tx” value ([3]; individual cases 1-8, after PF treatment, NR: 35-160) was 60 mg/dL and 59 mg/dL and 67 mg/dL and 71 mg/dL and 110 mg/dL and 55 mg/dL and 85 mg/dL and 73 mg/dL and the “Serum Cholesterol Post-tx” value ([3]; individual cases 1-8, after PF treatment, NR: 50-200) was 135 mg/dL and 151 mg/dL and 222 mg/dL and 168 mg/dL and 237 mg/dL and 150 mg/dL and 148 mg/dL and 171 mg/dL. The “LDL Cholesterol Post-tx” value ([3]; individual cases 1-8, after PF treatment, NR: 60-150) was 75 mg/dL and 92 mg/dL and 146 mg/dL and 108 mg/dL and 176.5 mg/dL and 98 mg/dL and 93 mg/dL and 113 mg/dL and the release of glycerol [4] was “increased the release of glycerol significantly”.
